For 30 molecules, AC50 results are on record in patent US20250262201A1, “COMPOUNDS AND METHODS USEFUL FOR STABILIZING PHENYLALANINE HYDROXYLASE MUTATIONS” (Agios Pharmaceuticals, Inc., priority 2022, published 2025).

For orientation: AC50 means the concentration at which the activity in the assay is half-maximal.

This assay addresses T1, human PAH with the R408W mutation (Homo sapiens, UniProt P00439, R408W).
T1 construct: expressed in transfected cells
T1 sequence (P00439 1-452 R408W): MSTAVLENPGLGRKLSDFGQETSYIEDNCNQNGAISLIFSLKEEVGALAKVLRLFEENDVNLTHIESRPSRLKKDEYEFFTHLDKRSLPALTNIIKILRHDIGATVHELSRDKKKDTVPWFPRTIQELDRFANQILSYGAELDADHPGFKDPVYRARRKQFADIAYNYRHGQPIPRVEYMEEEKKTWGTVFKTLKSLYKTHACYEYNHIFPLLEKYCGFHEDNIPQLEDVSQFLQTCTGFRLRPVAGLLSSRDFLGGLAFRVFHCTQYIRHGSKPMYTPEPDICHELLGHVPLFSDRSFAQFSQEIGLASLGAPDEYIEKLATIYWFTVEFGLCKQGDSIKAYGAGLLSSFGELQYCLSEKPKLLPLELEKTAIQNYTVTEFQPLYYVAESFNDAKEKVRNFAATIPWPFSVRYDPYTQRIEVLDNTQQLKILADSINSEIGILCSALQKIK
The experiment in a line: Cell Based Phenylalanine Flux Assay. The arrangement: scale not given here. To be noted: 13C-Tyrosine by LC-MS, average where tested multiple times.

Where [1] appears, read: A375 R408W cells, 24 hrs with compound, then 20 μM sepiapterin and 800 μM 13C9,15N-Phenylalanine for 4 hours, read-out: AC50.
[2] abbreviates: A375 cells expressing human R408W PAH, 24 hrs compound incubation, read-out: AC50.
[3] abbreviates: A375 R408W cells, 24 hrs with compound, then 20 μM sepiapterin and 800 μM 13C9,15N-Phenylalanine for 4 hours.

Where two headings read alike, the source gives them in different places.

In the case of `Cn1cc(-c2nnc(C(=O)N3CCc4[nH]cnc4C3c3cn4ccccc4n3)o2)cn1` (stereo not drawn), the AC50 under setting [1] was 1 to 5 µM.

With `Cc1nnc(C(=O)N2CCc3[nH]cnc3C2c2cc3ccccc3nn2)o1` (stereo not drawn), under setting [1], the AC50 is greater than 5 µM. With `O=C(c1nnc(-c2ccc(F)cn2)o1)N1CCc2[nH]cnc2C1c1ccc2ccccc2n1` (stereo in doubt) [Example 34, (S)-(5-(5-fluoropyridin-2-yl)-1,3,4-oxadiazol-2-yl)(4-(quinolin-2-yl)-6,7-dihydro-1H-imidazo[4,5-c]pyridin-5(4H)-yl)methanone], the AC50 under setting [2] is greater than 5 µM.

On to `Cc1nc(C(C)(C)C#N)oc1C(=O)N1CCc2[nH]cnc2C1c1ccc2ccccc2n1` (stereo in doubt) [Example 117, (S)-2-methyl-2-(4-methyl-5-(4-(quinolin-2-yl)-4,5,6,7-tetrahydro-1H-imidazo[4,5-c]pyridine-5-carbonyl)oxazol-2-yl)propanenitrile], for which the half-maximal activity concentration (AC50) under setting [2] is 1 to 5 µM.

`O=C(CCc1ncco1)N1CCc2[nH]cnc2C1c1cn2ccccc2n1` (stereo not drawn): under setting [1], the AC50 fell in the range of 1 to 5 µM. With `Cc1nc(C(F)(F)F)c(C(=O)N2CCc3nc[nH]c3[C@@H]2c2cn3ccccc3n2)o1` (single isomer, unassigned), the AC50 entry under setting [3] was “E, E”. For the molecule `O=C(Cc1cnn2ccccc12)N1CCc2[nH]cnc2C1c1ccc2ccccc2n1` (stereo not drawn), under setting [1], the concentration at half-maximal activity (AC50) fell in the range of 1 to 5 µM. Still for that read-out and setting: then `COCCc1ccc2c(C(=O)N3CCc4[nH]cnc4C3c3ccc4ccccc4n3)cnn2c1` (stereo not drawn), with 1 to 5 µM. Take `O=C(c1nnc(-c2c(F)cccc2F)o1)N1CCc2[nH]cnc2C1c1ccc2ccccc2n1` (stereo in doubt) [Example 23, (R)-(5-(2,6-difluorophenyl)-1,3,4-oxadiazol-2-yl)(4-(quinolin-2-yl)-6,7-dihydro-1H-imidazo[4,5-c]pyridin-5(4H)-yl)methanone]: the concentration at half-maximal activity (AC50) under setting [2] was less than 0.5 µM. On to `CN1CCN(c2cn3ncc(C(=O)N4CCc5[nH]cnc5[C@H]4c4cc5ccccc5cn4)c3cc2Cl)CC1` [Example 464, (R)-(5-chloro-6-(4-methylpiperazin-1-yl)pyrazolo[1,5-a]pyridin-3-yl)(4-(isoquinolin-3-yl)-6,7-dihydro-1H-imidazo[4,5-c]pyridin-5(4H)-yl)methanone], for which, under setting [2], the AC50 is less than 0.5 µM. The same measure, in the same setting: then `Cc1nc(C(C)(C)O)oc1C(=O)N1C[C@H](C)c2[nH]cnc2[C@H]1c1cc2ccccc2cn1` [Example 389, (2-(2-hydroxypropan-2-yl)-4-methyloxazol-5-yl)((4R,7S)-4-(isoquinolin-3-yl)-7-methyl-6,7-dihydro-1H-imidazo[4,5-c]pyridin-5(4H)-yl)methanone], with less than 0.5 µM. Same read-out and setting: as for `Cn1cc(C(=O)N2CCc3[nH]cnc3C2c2ccc3ccccc3n2)c(C(F)F)n1` (stereo in doubt) [Example 83, (R)-(3-(difluoromethyl)-1-methyl-1H-pyrazol-4-yl)(4-(quinolin-2-yl)-6,7-dihydro-1H-imidazo[4,5-c]pyridin-5(4H)-yl)methanone], the figure is less than 0.5 µM.

In the case of `O=C(C1CC1(F)F)N1CCc2[nH]cnc2C1c1cn2ccccc2n1` (stereo not drawn), the half-maximal activity concentration (AC50) under setting [1] lay within 1 to 5 µM.

In the case of `O=C(c1oc(-c2ccccn2)nc1C1CC1)N1CCc2[nH]cnc2C1c1ccc2ccccc2n1` (stereo in doubt) [Example 44, (S)-(4-cyclopropyl-2-(pyridin-2-yl)oxazol-5-yl)(4-(quinolin-2-yl)-6,7-dihydro-1H-imidazo[4,5-c]pyridin-5(4H)-yl)methanone], under setting [2], the concentration at half-maximal activity (AC50) was 1 to 5 µM.

With `O=C(c1nnc(-c2ccc(F)cc2)o1)N1CCc2[nH]cnc2C1c1ccc2ccccc2n1` (stereo in doubt) [Example 11, (R)-(5-(4-fluorophenyl)-1,3,4-oxadiazol-2-yl)(4-(quinolin-2-yl)-6,7-dihydro-1H-imidazo[4,5-c]pyridin-5(4H)-yl)methanone], under setting [2], the AC50 was less than 0.5 µM. Take `COc1ccc(-c2nc(C(F)F)c(C(=O)N3CCc4[nH]cnc4C3c3ncc4ccccc4n3)o2)nc1` (stereo not drawn): under setting [3], the AC50 result is given as “E, E”. Regarding `O=C(c1cnn2cc(-c3ccncn3)ccc12)N1CCc2[nH]cnc2[C@H]1c1cc2ccccc2cn1` [Example 476, (R)-(4-(isoquinolin-3-yl)-6,7-dihydro-1H-imidazo[4,5-c]pyridin-5(4H)-yl)(6-(pyrimidin-4-yl)pyrazolo[1,5-a]pyridin-3-yl)methanone], the concentration at half-maximal activity (AC50) under setting [2] was less than 0.5 µM.

Regarding `O=C(c1nnc(-c2ccc(F)c(F)c2)o1)N1CCc2[nH]cnc2C1c1ccc2ccccc2n1` (stereo in doubt) [Example 70, (S)-(5-(3,4-difluorophenyl)-1,3,4-oxadiazol-2-yl)(4-(quinolin-2-yl)-6,7-dihydro-1H-imidazo[4,5-c]pyridin-5(4H)-yl)methanone], the half-maximal activity concentration (AC50) under setting [2] is greater than 5 µM. Turning to `C[C@H]1CN(c2nnc(-c3ccccn3)o2)[C@@H](c2cc3ccccc3cn2)c2nc[nH]c21` (single isomer, unassigned), the AC50 under setting [1] is greater than 5 µM. For `CC1CN(C(=O)c2oc(C(C)(C)O)nc2C(F)(F)F)C(c2cc3ccccc3cn2)c2nc[nH]c21` [(4R,7R) diastereomer of (2-(2-hydroxypropan-2-yl)-4-(trifluo], the AC50 result under setting [3] is “E, E,”. With `C[C@@H]1CN(C(=O)c2oc(C(C)(C)O)nc2C2CC2)[C@@H](c2cc3ccccc3cn2)c2nc[nH]c21` [Example 401, (4-cyclopropyl-2-(2-hydroxypropan-2-yl)oxazol-5-yl)((4S,7R)-4-(isoquinolin-3-yl)-7-methyl-6,7-dihydro-1H-imidazo[4,5-c]pyridin-5(4H)-yl)methanone], the concentration at half-maximal activity (AC50) under setting [2] lay within 1 to 5 µM.

As for `O=C(c1nnc(CCNC2CC2)o1)N1CCc2[nH]cnc2C1c1ccc2ccccc2n1` (stereo not drawn), the concentration at half-maximal activity (AC50) under setting [1] was 1 to 5 µM. Same read-out and setting: as for `O=C(c1cnc(C(F)(F)F)s1)N1CCc2[nH]cnc2C1c1cn2ccccc2n1` (stereo not drawn), the figure is 1 to 5 µM; as for `O=C(c1n[nH]c2ccccc12)N1CCc2[nH]cnc2C1c1ccc2ccccc2n1` (stereo not drawn), greater than 5 µM. Consider `O=C(c1cncs1)N1CCc2[nH]cnc2[C@H]1c1ccc2ccccc2c1` [Example 221, (R)-(4-(naphthalen-2-yl)-6,7-dihydro-1H-imidazo[4,5-c]pyridin-5(4H)-yl)(thiazol-5-yl)methanone], for which the half-maximal activity concentration (AC50) under setting [2] was in the range of 1 to 5 µM.

For `C[C@H]1CN(C(=O)c2nnc(-c3ccccn3)o2)[C@@H](c2cc3ccccc3cn2)c2nc[nH]c21` (single isomer, unassigned) [Example 386], the AC50 under setting [2] was greater than 5 µM. On to `Cn1ncnc1C(=O)N1CCc2[nH]cnc2[C@H]1c1cc2ccccc2cn1` [Example 518, [(4R)-4-(3-isoquinolyl)-1,4,6,7-tetrahydroimidazo[4,5-c]pyridin-5-yl]-(2-methyl-1,2,4-triazol-3-yl)methanone], for which the half-maximal activity concentration (AC50) under setting [2] is less than 0.5 µM.

On to `O=C(c1cnco1)N1CCc2[nH]cnc2[C@@H]1c1ncc2ccccc2n1` [Example 150, (R)-oxazol-5-yl(4-(quinazolin-2-yl)-6,7-dihydro-1H-imidazo[4,5-c]pyridin-5(4H)-yl)methanone], for which, under setting [2], the AC50 was greater than 5 µM. The same measure, in the same setting: as for `O=C(c1oc(C2CC(F)(F)C2)nc1C(F)F)N1CCc2[nH]cnc2C1c1ccc2ccccc2n1` (stereo in doubt) [Example 72, (S)-(2-(3,3-difluorocyclobutyl)-4-(difluoromethyl)oxazol-5-yl)(4-(quinolin-2-yl)-6,7-dihydro-1H-imidazo[4,5-c]pyridin-5(4H)-yl)methanone], the figure is 1 to 5 µM. Turning to `O=C(CCc1ccccc1)N1CCc2[nH]cnc2C1c1cn2ccccc2n1` (stereo not drawn), the concentration at half-maximal activity (AC50) under setting [1] is greater than 5 µM.
